Measured values from patent publication US12594292B2, “Antiviral prodrugs, intermediate-and long-acting formulations and methods” (priority 2022, dated 2026).

Legend:
HCoV-229E = type: cell-based, human Coronavirus 229E
Huh7.5 cells = test: Cytotoxicity in Huh7.5 cells, nuclei count (Example 6); type: cell-based, human
SARS-CoV-2 [1] = test: SARS-CoV-2 infection assay in TMPRSS2-Vero cells, nucleocapsid immunofluorescence (Example 6); type: cell-based; conditions: MOI 0.01, 32 hours
TMPRSS2-Vero cells = test: Cytotoxicity in TMPRSS2-Vero cells, nuclei count (Example 6); type: cell-based
[2] = tested on: SARS-CoV-2 isolate USA-WA1/2020; test: SARS-CoV-2 infection in Vero E6 cells, qRT-PCR (Example 7); type: cell-based
[3] = tested on: SARS-CoV-2 isolate USA-WA1/2020; test: SARS-CoV-2 infection in PSC-human lung cells, qRT-PCR (Example 7); type: cell-based
[4] = tested on: SARS-CoV-2 isolate USA-WA1/2020; test: SARS-CoV-2 infection in Calu-3 cells, qRT-PCR (Example 7); type: cell-based
[5] = tested on: SARS-CoV-2 isolate USA-WA1/2020; test: SARS-CoV-2 infection in Caco-2 cells, qRT-PCR (Example 7); type: cell-based
Human Coronavirus 229E = Human Coronavirus 229E infected MRC-5 cells, CPE by MTT (Example 8); type: cell-based; conditions: 229E in MRC-5 cells, 72 hours
[6] = Seven day oral pharmacokinetics in Syrian hamsters; type: in vivo
Procedure: ODBG-P-RVn in 0.1M sodium carbonate/bicarbonate buffer, pH 9.0, was administered to Syrian Hamsters by oral gavage every 12 hours for seven days. ODBG-P-RVn was present as the sodium salt.
FIG. 4A and FIG. 4B depict the seven day oral pharmacokinetics in Syrian hamsters. Syrian hamsters were given vehicle or ODBG-P-RVn by oral gavage every 12 hours for 7 days. Groups of 3 animals received vehicle or drug at doses of 16.9 and 13.2 mg/kg. Animals were weighed daily and monitored for clinical signs.
Analytical Methods: ODBG-P-RVn: Hamster plasma samples (10 μL) containing ODBG-P-RVn and K2EDTA as the anticoagulant were added to polypropylene tubes containing water (100 μL), internal standard solution (10 μL; 1,000 ng/mL of ODE-P-RVn in ACN:DMF (1:1, v/v)), and 10 μL of ACN:DMF (1:1, v/v). The solutions were mixed, then acidified with phosphoric acid, 85% w/v:water (1:19, v/v; 10 μL), mixed, then diluted with 200 μL of IPA, mixed, then diluted with 500 μL of water, and mixed. The samples were extracted with a Sep-Pak® tC18 96-well solid phase extraction plate (25 mg; Waters, Milford, MA). Extraction occurred under positive pressure conditions using nitrogen. Samples were washed serially with 1 mL of water:acetonitrile:formic acid (475:25:0.5, v/v/v) and 0.4 mL of water:acetonitrile:formic acid (350:150:0.5, v/v/v) before being serially eluted with 100 μL and 150 μL of water:{acetonitrile:isopropyl alcohol (1:1, v/v)}:formic acid:ammonium formate:citric acid solution, 2% w/v (15:85:0.1:0.1:0.1, v/v/v/w/v). The citric acid solution was prepared as water:citric acid monohydrate (20:0.4, v/w). After elution, 100 μL of water was added to each sample. The ODBG-P-RVn extracts were analyzed using an Agilent 1200 HPLC system (Agilent, Santa Clara, CA) coupled to an API5500 mass analyzer (SCIEX, Foster City, CA). Analytes were chromatographically separated using a Dacapo DX-C18 MF column (100×2 mm, 2.5 μm; ImtaktUSA, Portland, OR) using a mobile phase system consisting of Mobile Phase A (water:formic acid:[water:ammonium formate:citric acid (25:5:0.5, v/w/w)](1.000:1:1, v/v/v) and Mobile Phase B (acetonitrile:isopropyl alcohol:formic acid:[water:ammonium formate:citric acid (25:5:0.5, v/w/w)](800:200:1:1, v/v/v/v). The total analytical run time was 4.5 minutes. The mobile phase was nebulized using heated nitrogen in a Turbo-V source/interface set to electrospray positive ionization mode. The ionized compounds were detected using multiple reaction monitoring with transitions m/z 788.4>229 (V2043) and 668.4>467.2 (V2041). This method is applicable for measuring ODBG-P-RVn concentrations ranging from 6.25 to 3,000 ng/mL using 10.0 μL of plasma for extraction. The peak areas of ODBG-P-RVn and RVn were acquired using Analyst v. 1.6.2 (SCIEX, Framingham, MA). The calibration curve was obtained by fitting the peak area ratios of the analyte/I.S. and the standard concentrations to a linear equation with 1/x2 weighting, using Analyst. The equation of the calibration curve was then used to interpolate the concentrations of the analyte in the samples using their peak area ratios. The peak areas used for the calculations were not rounded.
The solutions were mixed and centrifuged at 16,000 g for five minutes. […] The GS-441524 extracts were analyzed using an Acquity UPLC system (Waters, Milford, MA) coupled to a G2-S QTof mass analyzer (Waters, Milford, MA). […]

Calu-3 cells [7] = test: Cell viability assay CellTiter-Glo, Calu-3 cells (Example 7); conditions: Calu-3 cells, CellTiter-Glo
VERO E6 cells = test: Cell viability assay CellTiter-Glo, Vero E6 cells (Example 7)
Calu-3 cells [8] = test: Cytotoxicity in Calu-3 cells, nuclei count or CellTiter-Glo (Example 6); conditions: for select compounds up to 100 μM by CellTiter-Glo
Procedure: After which an equal volume of CellTiter-Glo reagent (Cat. #G7570, Promega, Madison, WI) was added, mixed and luminescence recorded on a Veritas Microplate Luminometer (Turner BioSystems) according to manufacturer recommendations.

SARS-CoV-2 [9] = test: SARS-CoV-2 infection assay in Calu-3 cells, nucleocapsid immunofluorescence (Example 6); conditions: MOI 0.01, 44 hour
[10] = Caco-2 cells, MOI 0.01, 48 hours

Structure (SMILES): CCCCCCCCCCCCCCCCCCOC[C@H](COP(=O)(O)OC[C@H]1O[C@@](C#N)(c2ccc3c(N)ncnn23)[C@H](O)[C@@H]1O)OCc1ccccc1 [Compound 15d, 1-O-octadecyl-2-O-benzyl-sn-glyceryl-phospho-RVn]
- EC50 (HCoV-229E): 0.1 µM
- EC90 (HCoV-229E): 0.28 ± 0.013 µM
- CC50 (Huh7.5 cells): > 20 µM
- EC50 (SARS-CoV-2 [1]): 0.205 µM
- EC90 (SARS-CoV-2 [1]): 0.432 µM
- CC50 (TMPRSS2-Vero cells): > 20 µM
- Selectivity ([2]; CC50/EC50, Vero E6 cells): 699
- EC50 ([2]; Vero E6 cells, MOI 0.01, 48 hours): 0.14 µM
- EC90 ([2]; Vero E6 cells, MOI 0.01, 48 hours, listed as ODBG-P-RVn, 15d): 0.16 µM
- Selectivity ([3]; CC50/EC50, PSC-human lung cells): 410
- EC90 ([3]; PSC-human lung cells, MOI 0.01, 48 hours): 0.26 µM
- Selectivity ([4]; CC50/EC50, Calu-3 cells): 327
- EC90 ([4]; Calu-3 cells, MOI 0.01, 48 hours): 0.33 µM
- EC50 ([4]; Calu-3 cells, MOI 0.01, 48 hours, listed as ODBG-P-RVn): 0.3 µM
- Selectivity ([5]; CC50/EC50, Caco-2 cells): 295
- EC50 [5, 10]: 0.3 µM
- EC90 [5, 10]: 0.33 µM
- EC50 (Human Coronavirus 229E): 0.15 µM
- ODBG-P-RVn plasma levels at 12 hours versus EC90 in all cell lines studied ([6]; day 1 and 7): above the EC90
- time in which plasma levels fell by 50% ([6]; hamster, in vivo, po): about 5 hours
- tolerability, clinical signs ([6]; oral gavage every 12 hours for seven days): well tolerated
- CC50 (MRC-5 cells): 43.1 ± 18.9 µM
- CC50 (Calu-3 cells [7]): 98.2 µM
- CC50 (VERO E6 cells): 97.9 µM
- CC50 (Calu-3 cells [8]): > 20 µM
- EC50 (SARS-CoV-2 [9]): 0.164 ± 0.02 µM
- EC90 (SARS-CoV-2 [9]): 0.536 ± 0.138 µM
